The text below walks through data of patent US10940139B2, “Compounds that interact with the Ras superfamily for the treatment of cancers, inflammatory diseases, rasopathies, and fibrotic disease” (Shy Therapeutics LLC, priority 2017, dated 2021).

The subject of one assay is MIA-PACA2 pancreatic cancer cell lines. Description: Cell proliferation assay (CellTiter 96 AQueous One). Format: cell-based. The note with it: Homo sapiens, MIA PaCa-2; MIA-PACA2, same assay as the % inhibition (standard conditions).
The term IC50 denotes the point on the concentration scale where inhibition reaches its midpoint. Regarding `CN(C)Cc1ccc(-c2csc3c(O)nc(-c4ccccn4)nc23)cc1F` [drawing 1721], the IC50 lay within 100 to 500 nM. Regarding `Oc1nc(-c2ccccn2)nc2c(-c3ccccc3)csc12` [drawing 1581], the IC50 lay within 100 to 500 nM. Same read-out and setting: the figure for `N#Cc1ncn(-c2nc(-c3ccccn3)nc3sc(-c4ccccc4)cc23)n1` [drawing 1595] is 501 to 1000 nM; for `O=c1nc(-c2ccccn2)[nH]c2ccsc12` [drawing 1494] it is greater than 1000 nM. The same measure, in the same setting: the figure for `Oc1nc(-c2ccccn2)nc2c(Br)csc12` [drawing 1562] is 501 to 1000 nM. The same measure, in the same setting: the figure for `CC(C)(C)c1ccc(-c2csc3c(O)nc(-c4ccccn4)nc23)cc1` [drawing 1723] is 100 to 500 nM.

Staying with this assay, now noted: Homo sapiens, MIA PaCa-2; at 30 μM, MIA-PACA2.
For orientation: inhibition means the percentage by which the read-out fell short of the control. The low end stands for a response near the control, the high end for a response far below the control. The compound `CSc1nc(C2CC2)cc(C(=O)NCCc2ccc(S(=O)(=O)NC(=O)c3cc(C4CC4)nc(SC)c3C#N)cc2)c1C#N` [drawing 1539] gave an inhibition at 30 µM of 1 to 25%. Still for that read-out and setting: the figure for `O=C(Cn1c(=O)[nH]c2ccccc21)Nc1nnc(-c2ccccn2)[nH]1` [drawing 1448] is 25 to 50%; for `COCCN(CCOC)c1nc(-c2ccccn2)nc2scc(C(=O)NCCc3ccc(OC)nc3)c12` [drawing 1685] it is 76 to 100%. On the same count and under the same terms, the figure for `CC(C(=O)Nc1ccnc(-c2ccccn2)n1)c1ccc(C#N)cc1` (stereo not drawn) [drawing 1687] is 76 to 100%; for `O=C(Nc1nnc(-c2ccccn2)[nH]1)c1ncoc1-c1cccs1` [drawing 1416] it is 76 to 100%; for `Cc1ccc(CC(=O)Nc2nnc(-c3ccccn3)[nH]2)s1` [drawing 1433] it is 76 to 100%. Same read-out and setting: the figure for `Cc1cccc(C)c1OCCOC(=O)c1ccccc1SCCOc1c(C)cccc1C` [drawing 1541] is 51 to 75%.

For `Cc1ccc(C(=O)Nc2nnc(-c3ccccn3)[nH]2)cc1S(C)(=O)=O` [drawing 1391], the inhibition at 30 µM was in the range of 51 to 75%. Same read-out and setting: to `O=C(c1csc2c(O)nc(-c3ccccn3)nc12)N(CCO)CCOCCO` [drawing 1576] belongs 1 to 25%. The same measure, in the same setting: to `CC(OCc1ccccc1)C(=O)Nc1nnc(-c2ccccn2)[nH]1` (stereo not drawn) [drawing 1428] belongs 51 to 75%; to `CN(C)Cc1ccc(-c2csc3c(O)nc(-c4ccccn4)nc23)cc1F` [drawing 1721], 76 to 100%; to `O=C(CCn1ccc2ccccc21)Nc1nnc(-c2ccccn2)[nH]1` [drawing 1392], 51 to 75%.

As for `Cc1cnccc1-c1csc2c(O)nc(-c3ccccn3)nc12` [drawing 1764], the inhibition at 30 µM was 76 to 100%. Same read-out and setting: to `c1ccc(-c2nc(N3CCOCC3)c3ccsc3n2)nc1` [drawing 1588] belongs 51 to 75%. Same read-out and setting: the figure for `COc1ccnc(-c2nc(O)c3c(Cl)csc3n2)c1` [drawing 1693] is 76 to 100%; for `Cc1cccc(OCC(=O)Nc2nnc(-c3ccccn3)[nH]2)c1` [drawing 1464] it is 51 to 75%; for `CS(=O)(=O)c1cccc(C(=O)N2CCCc3c(O)nc(-c4ccccn4)nc32)c1` [drawing 1549] it is 1 to 25%. Same read-out and setting: to `COc1nc(-c2ccccn2)nc2c(C3CCCC3)csc12` [drawing 1793] belongs 76 to 100%; to `COc1ccc(N2CCN(C(=O)c3csc4c(O)nc(-c5ccccn5)nc34)CC2)c(OC)c1` [drawing 1652], 76 to 100%. In turn, `COc1ccc(-c2csc3[nH]c(-c4ccccn4)nc(=O)c23)cc1` [drawing 1489] yielded an inhibition at 30 µM of 76 to 100%.

The compound `O=S1(=O)CCC(N2CCN(c3nc(-c4ccccn4)nc4scc(-c5ccccc5)c34)CC2)C1` (stereo not drawn) [drawing 1608] yielded an inhibition at 30 µM of 76 to 100%. On the same count and under the same terms, the figure for `Oc1nc(-c2ccccn2)nc2c(-c3ccccc3)csc12` [drawing 1581] is 76 to 100%; for `O=C(c1csc2c(O)nc(-c3ccccn3)nc12)N1CCNC(c2ccc(F)cc2)C1` (stereo not drawn) [drawing 1700] it is 76 to 100%; for `O=C(CC(c1ccccc1)c1ccccc1)N1CCCc2c(O)nc(-c3ccccn3)nc21` [drawing 1555] it is 76 to 100%.

As for `Cn1cc(-c2nc(C(=O)Nc3nnc(-c4ccccn4)[nH]3)cs2)cn1` [drawing 1403], the inhibition at 30 µM was 76 to 100%.

In turn, `O=C(Nc1nnc(-c2ccccn2)[nH]1)c1ccc(Oc2cccnc2)cc1` [drawing 1460] had an inhibition at 30 µM of 76 to 100%. Regarding `O=C(OCCc1ccccc1)N1CCCc2c(O)nc(-c3ccccn3)nc21` [drawing 1554], the inhibition at 30 µM was in the range of 76 to 100%.

Compound `O=C(c1csc2c(O)nc(-c3ccccn3)nc12)N1CCN(Cc2ccccc2)CC1` [drawing 1655] gave an inhibition at 30 µM of 76 to 100%. In turn, `COc1ccc(COCC(=O)Nc2nnc(-c3ccccn3)[nH]2)cc1` [drawing 1471] came in with an inhibition at 30 µM of 1 to 25%. The compound `O=C(Nc1nnc(-c2ccccn2)[nH]1)c1ccc(OCC2CC2)cc1` [drawing 1434] registered an inhibition at 30 µM of 76 to 100%. `Oc1nc(-c2ccccn2)nc2c(-c3ccc(OC4CCCCC4)cc3)csc12` [drawing 1763] registered an inhibition at 30 µM of 76 to 100%. On the same count and under the same terms, to `Cc1cnc(-c2ccccn2)nc1NC(=O)C(C)c1ccc(C#N)cc1` (stereo not drawn) [drawing 1690] belongs 76 to 100%.

As to `O=C(Nc1nc(-c2ccccn2)cs1)c1ccc2[nH]cnc2c1` [drawing 1478], the inhibition at 30 µM was 76 to 100%. Still for that read-out and setting: the figure for `O=C(c1csc2c(O)nc(-c3ccccn3)nc12)N1CCN(c2ccc(O)c(Cl)c2)CC1` [drawing 1696] is 76 to 100%; for `O=c1nc(-c2ccccn2)[nH]c2c1sc1ccccc12` [drawing 1499] it is 76 to 100%.

In turn, `COCC1CCN(C(=O)c2csc3c(O)nc(-c4ccccn4)nc23)CC1` [drawing 1564] returned an inhibition at 30 µM of 76 to 100%. On the same count and under the same terms, to `CCC(C)c1csc2c(OC)nc(-c3ccccn3)nc12` (stereo not drawn) [drawing 1794] belongs 76 to 100%; to `O=C(COc1ccccc1)N1CCCc2c(O)nc(-c3ccccn3)nc21` [drawing 1543], 76 to 100%; to `Cc1[nH]nc(CCCN(C)c2nc(-c3ccccn3)nc3sc(-c4ccccc4)cc23)c1C#N`, 76 to 100%.

Regarding `COc1ncc(CCNC(=O)c2csc3nc(-c4ccccn4)nc(N4CCOCC4)c23)cn1` [drawing 1642], the inhibition at 30 µM is 76 to 100%. In turn, `O=C(Nc1nc(-c2ccccn2)cs1)c1ccc(F)cc1` [drawing 1486] showed an inhibition at 30 µM of 76 to 100%. The same measure, in the same setting: the figure for `CCN(CC)S(=O)(=O)c1ccc(NCCOC)c(C(=O)NCCSCc2ccc(C)cc2)c1` [drawing 1538] is 76 to 100%; for `Cc1nc(-c2ccccn2)nc(O)c1CCC(=O)NCCc1cccs1` [drawing 1502] it is 76 to 100%.

In turn, `O=C(Cc1ccc2c(c1)OCCO2)Nc1nnc(-c2ccccn2)[nH]1` [drawing 1461] registered an inhibition at 30 µM of 51 to 75%.

In the case of `CN(C)Cc1ccc(F)c(-c2csc3c(O)nc(-c4ccccn4)nc23)c1` [drawing 1777], the inhibition at 30 µM is 76 to 100%.

In turn, `COc1nccc(CCNC(=O)c2csc3nc(-c4ccccn4)nc(N4CCOCC4)c23)n1` [drawing 1773] displayed an inhibition at 30 µM of 76 to 100%.

The compound `Oc1nc(-c2ccccn2)nc2c(-c3ccc(OC(F)F)cc3F)csc12` [drawing 1752] displayed an inhibition at 30 µM of 76 to 100%.

The compound `O=C(CCc1cnn(-c2ccccc2)c1)Nc1nnc(-c2ccccn2)[nH]1` [drawing 1383] came in with an inhibition at 30 µM of 76 to 100%. On the same count and under the same terms, the figure for `CC(Oc1ccccc1C#N)C(=O)Nc1nnc(-c2ccccn2)[nH]1` (stereo not drawn) [drawing 1423] is 76 to 100%. On to `O=C(Cn1cnc2ccccc2c1=O)Nc1nc(-c2ccccn2)cs1` [drawing 1481], for which the inhibition at 30 µM was in the range of 76 to 100%. Same read-out and setting: to `COc1ccc(C2CN(C(=O)c3csc4c(O)nc(-c5ccccn5)nc34)CCO2)cc1` (stereo not drawn) [drawing 1661] belongs 76 to 100%; to `N#Cc1ncn(-c2nc(-c3ccccn3)nc3sc(-c4ccccc4)cc23)n1` [drawing 1595], 76 to 100%. Still for that read-out and setting: the figure for `COCCCCNC(=O)c1csc2nc(-c3ccccn3)nc(N3CCOCC3)c12` [drawing 1682] is 76 to 100%; for `O=C(COc1ccc(F)cc1F)Nc1nnc(-c2ccccn2)[nH]1` [drawing 1388] it is 51 to 75%. Take `COCCCC1CCN(C(=O)c2csc3c(O)nc(-c4ccccn4)nc23)CC1` [drawing 1566]: the inhibition at 30 µM lay within 76 to 100%. Regarding `CC(C)(O)c1ccc(-c2csc3c(O)nc(-c4ccccn4)nc23)c(F)c1` [drawing 1756], the inhibition at 30 µM was in the range of 76 to 100%. Same read-out and setting: the figure for `CCc1ccccc1OCC(=O)Nc1nnc(-c2ccccn2)[nH]1` [drawing 1442] is 76 to 100%; for `Nc1nc(-c2ccccn2)nc2c(-c3ccccc3)csc12` [drawing 1735] it is 76 to 100%. Still for that read-out and setting: to `O=C(CC1C=CCC1)Nc1nnc(-c2ccccn2)[nH]1` (stereo not drawn) [drawing 1407] belongs 51 to 75%; to `CC(C)NC(=O)Nc1cccc(C(=O)Nc2nnc(-c3ccccn3)[nH]2)c1` [drawing 1384], 25 to 50%. On the same count and under the same terms, to `O=c1nc(-c2ccccn2)[nH]c2ccsc12` [drawing 1494] belongs 1 to 25%; to `O=c1nc(-c2ccccn2)[nH]c2scc(-c3ccccc3Cl)c12` [drawing 1492], 76 to 100%. Consider `Cc1cc(C(=O)Nc2nc(-c3ccccn3)cs2)no1` [drawing 1475], for which the inhibition at 30 µM is 76 to 100%.

In turn, `COc1ccc(COCC(=O)N2CCCc3c(O)nc(-c4ccccn4)nc32)cc1` [drawing 1544] had an inhibition at 30 µM of 76 to 100%. Still for that read-out and setting: to `N#Cc1cccc(OCC(=O)Nc2nnc(-c3ccccn3)[nH]2)c1` [drawing 1435] belongs 25 to 50%; to `COc1ccc(CCC(=O)N2CCCc3c(O)nc(-c4ccccn4)nc32)cc1` [drawing 1545], 76 to 100%.

In the case of `COCCCC(=O)N1CCCc2c(O)nc(-c3ccccn3)nc21` [drawing 1550], the inhibition at 30 µM lay in the range of 76 to 100%. On the same count and under the same terms, the figure for `Cc1sc2nc(N)nc(O)c2c1C` [drawing 1630] is 1 to 25%; for `Oc1nc(-c2ccccn2)nc2sc3c(c12)CCNC3` [drawing 1727] it is 76 to 100%; for `O=C(c1csc2c(O)nc(-c3ccccn3)nc12)N1CCC(N2CCOCC2)CC1` [drawing 1567] it is 1 to 25%. The same measure, in the same setting: the figure for `Oc1nc(-c2ccccn2)nc2c(Br)csc12` [drawing 1562] is 76 to 100%; for `CC(Oc1ccc(C#N)cc1)C(=O)Nc1nnc(-c2ccccn2)[nH]1` (stereo not drawn) [drawing 1437] it is 76 to 100%.

`O=C(Nc1nc(-c2ccccn2)cs1)c1cccnc1` [drawing 1483] displayed an inhibition at 30 µM of 76 to 100%.

Take `CC(C)(C)c1ccc(-c2csc3c(O)nc(-c4ccccn4)nc23)cc1` [drawing 1723]: the inhibition at 30 µM was in the range of 76 to 100%. In turn, `O=C(Nc1nnc(-c2ccccn2)[nH]1)c1ccc(=O)n(CCOc2ccccc2)n1` [drawing 1463] showed an inhibition at 30 µM of 76 to 100%.
